# Assay results from patent publication US8716528B2, “Aryloxy amine compounds and their use as sodium channel modulators” (Howard Florey Institute, priority 2007, dated 2014).
# Several values for one entry are separate records, joined by “and”; a condition that tells them apart may be missing. Equal entries are not always repeated. Entries after “also recorded” stand apart in the source; their conditions may differ. Marks after values point to notes of the source that are not given here.
# Experiments:
# [1] = target: Sodium Channel Binding Site 2 in Rat Brain Membranes; conditions: 3H-batrachotoxinin 5 nM, 37° C. 60 minutes, read-out: IC50 (inhibition of specific binding of 3H-batrachotoxinin)
# [2] = tested on: Male Hooded Wistar rats, spinal cord injury (SCI); assay: Reversible spinal cord injury model: percentage of white and gray matter spared at the epicentre (H & E, Luxol Fast blue, cresyl violet); type: in vivo, rat
# Procedure: (§1) Male Hooded Wistar rats were anesthetized (2% isoflurane/98% oxygen), and laminectomy performed at spinal level T12. An inflatable balloon catheter was inserted rostral, underneath the vertebra, to T10 and inflated for 5 minutes, causing reversible paraplegia (Feldblum, et al., 2000). […] Rats had almost complete functional recovery by 15 d. Compound 1 (15 nmol/g and 60 nmol/g), mexiletine (60 nmol/g) and vehicle (5 ml/kg) were administered i.p, at 3 h after the injury and twice daily thereafter, until killed. Behavioural tests were conducted every 3 days. At 15 d post-injury, rats were anesthetized and transcardially perfused, to fix the spinal cords. Sections were cut and processed to examine the size of the cyst and modulatory effects of treatments or control on lesion formation.
# (§2) Volume of damage: Effects of treatment were measured first from H & E stained sections. […] Data are mean±SEM of measurements from n=4 rats per treatment group. Secondly, the sparing of spinal cord tissue by Compound 1 and mexiletine treatment was assessed by more detailed histological staining techniques.
# [3] = tested on: Male Hooded Wistar rats, spinal cord injury (SCI); assay: Reversible spinal cord injury model: horizontal ladder test; type: in vivo, rat; conditions: versus SCI+saline controls at the same time
# Procedure: as §1
# Ladder test: In the horizontal ladder test, rats are placed onto a beam which is randomly missing rungs, this prevents rats from adapting and compensating for any deficits following SCI. […] The results are depicted in FIG. 4. […] Data is expressed as the percentage of foot misplacements made of the total number of steps taken, using a combined score for both hindlimbs. […] Each rat acted as its own control, and results compared with pre-injury scores (0 h after SCI). […]
# [4] = tested on: Male Hooded Wistar rats, spinal cord injury (SCI); assay: Reversible spinal cord injury model: neuronal cell body counts by NeuN immunostaining; type: in vivo, rat; conditions: for loss of white matter and gray matter (rostro-caudal serial sections, neuronal cell body counts): after SCI, versus saline treatment
# Procedure: as §1, §2
# [5] = tested on: Male Hooded Wistar rats, spinal cord injury (SCI); assay: Reversible spinal cord injury model: volume of damage from H & E stained sections; type: in vivo, rat; conditions: equivalent mole dose, compared to SCI+saline, n=4
# Procedure: as §1, §2
# [6] = tested on: Male Hooded Wistar rats, spinal cord injury (SCI); assay: Reversible spinal cord injury model: BBB open-field locomotor score; type: in vivo, rat; conditions: i.p. 3 h after injury and twice daily, 15 days; versus vehicle treated controls
# Procedure: as §1
# BBB scale: Effects of Compound 1 and mexiletine treatment on the time course of functional recovery, following SCI, assessed with the BBB open-field locomotor score. […] Each rat acted as its own control, and results after SCI compared with pre-injury scores (0 h after SCI). Data are mean±SEM. ANOVA followed by Bonferroni post-test: [F(24,273)=10.57, P<0.0001], *P<0.05, **P<0.01, ***P<0.001 Compound 1 (60 nmol/g) versus the SCI+saline controls at the same time; †P<0.05 Compound 1 (15 nmol/g) or mexiletine (60 nmol/g) versus SCI+saline controls at the same time.
# [7] = tested on: Male Hooded Wistar rats, spinal cord injury (SCI); assay: Reversible spinal cord injury model: ledged beam task; type: in vivo, rat; conditions: for use of the support ledge, ledged beam task: after SCI, versus saline-treated controls
# Procedure: as §1
# Ledged beam: Effects of Compound 1 and mexiletine, and SCI+saline controls on recovery of function following spinal cord compression injury as assessed by the number of steps using the support ledge on the ledged beam task. The results are depicted in FIG. 5. Sham-SCI rats walked the length of the ledged beam with approximately 10% of steps made on the supporting ledge. […] Data is expressed as ledge use/errors made as a percentage of total steps taken with both hindlimbs after SCI. Each rat acted as its own control, and results compared with pre-injury scores (0 h after SCI). ANOVA followed by Bonferroni post-test: [F(24,273)=5.12, P<0.0001], *P<0.05, **P<0.01, ***P<0.001 Compound 1 (60 nmol/g) versus the SCI+saline controls at the same time; †P<0.05 Compound 1 (15 nmol/g) versus SCI+saline controls at the same time. […] Data are mean±SEM. n=6-11 rats in each group.
# [8] = tested on: Male Sprague-Dawley rats, L5 nerve ligated and cut; assay: Rat L5 nerve cut model of neuropathic pain, Von Frey filament withdrawal threshold (allodynia); type: in vivo; conditions: for grams of force needed to withdraw left limb: left hind paw, nerve cut; for grams of force needed to withdraw left limb / grams of force needed to withdraw right limb: individual rats #17-#20; for effect on allodynia: left paw, 4 rats; for grams of force needed to withdraw right limb: right hind paw, nerve intact
# Procedure: The following method is based on the method published by Chaplan et al, 1994. Male Sprague-Dawley rats from one litter were weaned when 19 days old and acclimatized for the next two days in the Animal House where the experiment was to be carried out. From days 21 to 25, rats were tested using a set of Von Frey monofilaments to test the mechanical withdrawal threshold of the hindpaws. The monofilaments were applied in increasing force until the rat withdrew the hind paw being tested. […] Rats were anaesthetized with a halothane/oxygen (5:95) gas mixture and a dorsal midline incision was made on the rat's lower back to expose the left lumbar region either side of the hip. Bone was clipped away to expose the L4 and L5 nerves distal to their emergence from the intervertebral foramina. The L5 nerve was then isolated using a glass hook, ligated and cut on the peripheral side of the ligation. The incision was then closed with suture threads and the anaesthetic gas discontinued. The next day rats underwent testing with the graded Von Frey filaments to the hind paws to determine if allodynia was present in the left paw as compared to the right hind paw. Testing was repeated on these rats until they were 28 days old. […] Rats were then tested with graded Von Frey filaments at 45 minutes and 90 minutes after injection in order to determine if allodynia had been blocked.
# [9] = +0.5 mm from epicentre, 60 nmol/g
# [10] = +1 mm from epicentre, 60 nmol/g
# [11] = +1.5 mm from epicentre, 60 nmol/g
# [12] = +2 mm from epicentre, 60 nmol/g
# [13] = +2.5 mm from epicentre, 60 nmol/g
# [14] = −0.5 mm from epicentre, 60 nmol/g
# [15] = −1 mm from epicentre, 60 nmol/g
# [16] = −1.5 mm from epicentre, 60 nmol/g
# [17] = −2 mm from epicentre, 60 nmol/g
# [18] = −2.5 mm from epicentre, 60 nmol/g
smiles,measurement,setting,value
COc1cccc(OC)c1OCCCNCc1cc(C(C)(C)C)c(O)c(C(C)(C)C)c1 [Compound 3],IC50,[1],107 nM
"Cc1cccc(C)c1OCCCNCc1ccc(N2N=CC(C)C2=O)cc1 (stereo not shown) [Comparative A, reference compound]",IC50,[1],11000 nM
CC(C)(C)c1cc(CNCCCOc2ccccc2)cc(C(C)(C)C)c1O [Compound 6],IC50,[1],236 nM
CC(C)(C)c1cc(CNCCCOc2c(Cl)cccc2Cl)cc(C(C)(C)C)c1O [Compound 2],IC50,[1],105 nM
CC(C)(C)c1cc(CNCCCOc2ccncc2)cc(C(C)(C)C)c1O [Compound 7],IC50,[1],870 nM
CC(C)c1cncc(C(C)C)c1OCCCNCc1cc(C(C)(C)C)c(O)c(C(C)(C)C)c1 [Compound 5],IC50,[1],380 nM
"Cc1cccc(C)c1OCC(C)N (stereo not shown) [Mexiletine, mexiletine, reference compound]","GRAY MATTER spared, % MEAN",[2]; 60 nmol/g,77.9* %
same,"TOTAL TISSUE spared, % MEAN",[2]; 60 nmol/g,70.5* %
same,"WHITE MATTER spared, % MEAN",[2]; 60 nmol/g,66.3* %
same,"number of hind-limb foot misplacements, horizontal ladder test",[3],decreased the number of hind-limb foot misplacements
same,IC50,[1],11000 nM
same,"No. of motor neurons Per sq mm, Mean","[4]; 0.0 mm (epicentre), 60 nmol/g",7* Per sq mm
same,"No. of motor neurons Per sq mm, Mean",[4]; [9],10* Per sq mm
same,"No. of motor neurons Per sq mm, Mean",[4]; [10],17* Per sq mm
same,"No. of motor neurons Per sq mm, Mean",[4]; [11],24* Per sq mm
same,"No. of motor neurons Per sq mm, Mean",[4]; [12],30 Per sq mm
same,"No. of motor neurons Per sq mm, Mean",[4]; [13],27 Per sq mm
same,"loss of white matter and gray matter (rostro-caudal serial sections, neuronal cell body counts)",[4],reduced loss of both white matter and gray matter
same,"No. of motor neurons Per sq mm, Mean",[4]; [14],11* Per sq mm
same,"No. of motor neurons Per sq mm, Mean",[4]; [15],17* Per sq mm
same,"No. of motor neurons Per sq mm, Mean",[4]; [16],26 Per sq mm
same,"No. of motor neurons Per sq mm, Mean",[4]; [17],33 Per sq mm
same,"No. of motor neurons Per sq mm, Mean",[4]; [18],31 Per sq mm
same,volume of damage (H & E stained sections),[5],reduced damage compared to SCI+saline
same,"rate of functional recovery following SCI, BBB open-field locomotor score",[6],significantly increased the rate of recovery
same,"ledge use, statistical difference from SCI+saline","[7]; 60 nmol/g, Bonferroni post-test",no significant difference from SCI+saline at any time
same,"use of the support ledge, ledged beam task",[7],significantly reduced
CC(C)c1cccc(C(C)C)c1OCCCNCc1cc(C(C)(C)C)c(O)c(C(C)(C)C)c1 [Compound 4],IC50,[1],90 nM
Cc1cccc(C)c1OCCCNCc1cc(C(C)(C)C)c(O)c(C(C)(C)C)c1 [Compound 8],IC50,[1],179 nM
Cc1cccc(C)c1OCC(C)NCc1cc(C(C)(C)C)c(O)c(C(C)(C)C)c1 (stereo not shown) [Compound 1],"GRAY MATTER spared, % MEAN",[2]; 15 nmol/g,80* %
same,"TOTAL TISSUE spared, % MEAN",[2]; 15 nmol/g,74.3* %
same,"WHITE MATTER spared, % MEAN",[2]; 15 nmol/g,63.6* %
same,"GRAY MATTER spared, % MEAN",[2]; 60 nmol/g,88.9* %
same,"TOTAL TISSUE spared, % MEAN",[2]; 60 nmol/g,83.9* %
same,"WHITE MATTER spared, % MEAN",[2]; 60 nmol/g,81.1* %
same,"number of hind-limb foot misplacements, horizontal ladder test",[3],decreased the number of hind-limb foot misplacements
same,IC50,[1],134 nM
same,"No. of motor neurons Per sq mm, Mean","[4]; 0.0 mm (epicentre), 15 nmol/g",9* Per sq mm
same,"No. of motor neurons Per sq mm, Mean","[4]; 0.0 mm (epicentre), 60 nmol/g",15* Per sq mm
same,"No. of motor neurons Per sq mm, Mean","[4]; +0.5 mm from epicentre, 15 nmol/g",10* Per sq mm
same,"No. of motor neurons Per sq mm, Mean",[4]; [9],16* Per sq mm
same,"No. of motor neurons Per sq mm, Mean","[4]; +1 mm from epicentre, 15 nmol/g",14* Per sq mm
same,"No. of motor neurons Per sq mm, Mean",[4]; [10],22* Per sq mm
same,"No. of motor neurons Per sq mm, Mean","[4]; +1.5 mm from epicentre, 15 nmol/g",25* Per sq mm
same,"No. of motor neurons Per sq mm, Mean",[4]; [11],29* Per sq mm
same,"No. of motor neurons Per sq mm, Mean","[4]; +2 mm from epicentre, 15 nmol/g",28 Per sq mm
same,"No. of motor neurons Per sq mm, Mean",[4]; [12],28 Per sq mm
same,"No. of motor neurons Per sq mm, Mean","[4]; +2.5 mm from epicentre, 15 nmol/g",29 Per sq mm
same,"No. of motor neurons Per sq mm, Mean",[4]; [13],30 Per sq mm
same,"loss of white matter and gray matter (rostro-caudal serial sections, neuronal cell body counts)",[4],reduced loss of both white matter and gray matter; also recorded: more effective than Mexiletine
same,"No. of motor neurons Per sq mm, Mean","[4]; −0.5 mm from epicentre, 15 nmol/g",11* Per sq mm
same,"No. of motor neurons Per sq mm, Mean",[4]; [14],17* Per sq mm
same,"No. of motor neurons Per sq mm, Mean","[4]; −1 mm from epicentre, 15 nmol/g",18* Per sq mm
same,"No. of motor neurons Per sq mm, Mean",[4]; [15],23* Per sq mm
same,"No. of motor neurons Per sq mm, Mean","[4]; −1.5 mm from epicentre, 15 nmol/g",26 Per sq mm
same,"No. of motor neurons Per sq mm, Mean",[4]; [16],26 Per sq mm
same,"No. of motor neurons Per sq mm, Mean","[4]; −2 mm from epicentre, 15 nmol/g",29 Per sq mm
same,"No. of motor neurons Per sq mm, Mean",[4]; [17],30 Per sq mm
same,"No. of motor neurons Per sq mm, Mean","[4]; −2.5 mm from epicentre, 15 nmol/g",27 Per sq mm
same,"No. of motor neurons Per sq mm, Mean",[4]; [18],30 Per sq mm
same,volume of damage (H & E stained sections),[5],reduced damage compared to SCI+saline
same,"rate of functional recovery following SCI, BBB open-field locomotor score",[6],significantly increased the rate of recovery
same,"use of the support ledge, ledged beam task",[7],significantly reduced
same,grams of force needed to withdraw left limb,[8]; 45 min post i.p. 70 nmol/g,11.44 g and 17.8 g (3×)
same,grams of force needed to withdraw left limb,[8]; 90 min post i.p. 70 nmol/g,3.7 g and 10.9 g and 17.8 g (2×)
same,effect on allodynia,[8]; 45 minutes after i.p. 70 nmol/g,allodynia had been completely eliminated in 3 of the rats
same,effect on allodynia,[8]; 90 minutes after i.p. 70 nmol/g,allodynia had still been eliminated in 2 rats
same,grams of force needed to withdraw right limb,[8]; 45 min post i.p. 70 nmol/g,17.8 g
same,grams of force needed to withdraw right limb,[8]; 90 min post i.p. 70 nmol/g,17.8 g
same,generalized anaesthesia (response of right hindpaw to filaments),"[8]; right hindpaw, 45 or 90 minutes after injection",did not cause a generalized anaesthesia
